How the values were obtained:
Assay type in all cases: in vivo
[1] = test system: barnyardgrass (Echinochloa crus-galli); assay: Test A preemergence, barnyardgrass; settings: Preemergence; for Barnyardgrass plant response rating: visual injury on 0 to 100 scale (0 no effect, 100 complete control), approximately 10 days; for Plant response rating, Barnyardgrass: 0 to 100 scale (0 no effect, 100 complete control)
In short: (§1)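 Whole-plant herbicidal screen in pots of loam blended with sand. Sprays used a surfactant-containing, non-phytotoxic solvent vehicle. Timing was preemergence soil-directed at planting or postemergence at the one- to two-leaf stage (2–10 cm).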

kochia (Bassia scoparia) [2] = assay: Test A preemergence, kochia; settings: Preemergence; for Kochia plant response rating: visual injury on 0 to 100 scale (0 no effect, 100 complete control), approximately 10 days; for Plant response rating, Kochia: 0 to 100 scale (0 no effect, 100 complete control)
In short: as §1

[3] = test system: ragweed (common ragweed, Ambrosia artemisiifolia); assay: Test A preemergence, ragweed; settings: Preemergence; for Ragweed plant response rating: visual injury on 0 to 100 scale (0 no effect, 100 complete control), approximately 10 days; for Plant response rating, Ragweed: 0 to 100 scale (0 no effect, 100 complete control)
In short: as §1

[4] = test system: Ryegrass, Italian (Italian ryegrass, Lolium multiflorum); assay: Test A preemergence, Ryegrass, Italian; settings: Preemergence; for Ryegrass, Italian plant response rating: visual injury on 0 to 100 scale (0 no effect, 100 complete control), approximately 10 days; for Plant response rating, Ryegrass, Italian: 0 to 100 scale (0 no effect, 100 complete control)
In short: as §1

[5] = test system: Foxtail, Giant (giant foxtail, Setaria faberi); assay: Test A preemergence, Foxtail, Giant; settings: Preemergence; for Foxtail, Giant plant response rating: visual injury on 0 to 100 scale (0 no effect, 100 complete control), approximately 10 days; for Plant response rating, Foxtail, Giant: 0 to 100 scale (0 no effect, 100 complete control)
In short: as §1

[6] = test system: pigweed (Amaranthus retroflexus); assay: Test A preemergence, pigweed; settings: for Pigweed plant response rating: visual injury on 0 to 100 scale (0 no effect, 100 complete control), approximately 10 days; for Plant response rating, Pigweed: 0 to 100 scale (0 no effect, 100 complete control)
Excerpt: Seeds of plant species selected from barnyardgrass (Echinochloa crus-galli), kochia (Bassia scoparia), ragweed (common ragweed, Ambrosia artemisiifolia), Ryegrass, Italian (Italian ryegrass, Lolium multiflorum), Foxtail, Giant (giant foxtail, Setaria faberi), and pigweed (Amaranthus retroflexus) were planted into a blend of loam soil and sand and treated preemergence with a directed soil spray using test chemicals formulated in a non-phytotoxic solvent mixture which included a surfactant. At the same time, plants selected from these weed species and also wheat (Triticum aestivum), corn (Zea mays), blackgrass (Alopecurus myosuroides), and galium (catchweed bedstraw, Galium aparine) were planted in pots containing the same blend of loam soil and sand and treated with postemergence applications of test chemicals formulated in the same manner. Plants ranged in height from 2 to 10 cm and were in the one- to two-leaf stage for the postemergence treatment. […] A dash (-) response means no test result.

kochia (Bassia scoparia) [7] = assay: Test A postemergence, kochia; settings: Postemergence, 0 to 100 scale (0 no effect, 100 complete control); for Plant response rating, Kochia: 125 g ai/ha; for Kochia plant response rating: 500 g ai/ha, visual injury vs untreated controls after approx. 10 days
In short: as §1

[8] = test system: ragweed (common ragweed, Ambrosia artemisiifolia); assay: Test A postemergence, ragweed; settings: Postemergence, 0 to 100 scale (0 no effect, 100 complete control); for Plant response rating, Ragweed: 125 g ai/ha; for Ragweed plant response rating: 500 g ai/ha, visual injury vs untreated controls after approx. 10 days
In short: as §1

[9] = test system: Ryegrass, Italian (Italian ryegrass, Lolium multiflorum); assay: Test A postemergence, Ryegrass, Italian; settings: Postemergence, 0 to 100 scale (0 no effect, 100 complete control); for Plant response rating, Ryegrass, Italian: 125 g ai/ha; for Ryegrass, Italian plant response rating: 500 g ai/ha, visual injury vs untreated controls after approx. 10 days
In short: as §1

[10] = test system: Foxtail, Giant (giant foxtail, Setaria faberi); assay: Test A postemergence, Foxtail, Giant; settings: Postemergence, 0 to 100 scale (0 no effect, 100 complete control); for Plant response rating, Foxtail, Giant: 125 g ai/ha; for Foxtail, Giant plant response rating: 500 g ai/ha, visual injury vs untreated controls after approx. 10 days
In short: as §1

[11] = test system: pigweed (Amaranthus retroflexus); assay: Test A postemergence, pigweed; settings: Postemergence, 0 to 100 scale (0 no effect, 100 complete control); for Plant response rating, Pigweed: 125 g ai/ha; for Pigweed plant response rating: 500 g ai/ha, visual injury vs untreated controls after approx. 10 days
In short: as §1

[12] = test system: wheat (Triticum aestivum); assay: Test A postemergence, wheat; settings: Postemergence, 0 to 100 scale (0 no effect, 100 complete control); for Plant response rating, Wheat: 125 g ai/ha; for Wheat plant response rating: 500 g ai/ha, visual injury vs untreated controls after approx. 10 days
In short: (§2)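 Greenhouse pot test in a loam–sand blend; compounds delivered in a non-phytotoxic solvent carrying a surfactant, applied either as a directed spray to soil at seeding or over seedlings 2 to 10 cm high with one to two leaves.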

corn (Zea mays) = assay: Test A postemergence, corn; settings: Postemergence, 0 to 100 scale (0 no effect, 100 complete control); for Plant response rating, Corn: 125 g ai/ha; for Corn plant response rating: 500 g ai/ha, visual injury vs untreated controls after approx. 10 days
In short: as §1

[13] = test system: blackgrass (Alopecurus myosuroides); assay: Test A postemergence, blackgrass; settings: Postemergence, 0 to 100 scale (0 no effect, 100 complete control); for Plant response rating, Blackgrass: 125 g ai/ha; for Blackgrass plant response rating: 500 g ai/ha, visual injury vs untreated controls after approx. 10 days
In short: as §1

[14] = test system: galium (catchweed bedstraw, Galium aparine); assay: Test A postemergence, galium; settings: Postemergence, 0 to 100 scale (0 no effect, 100 complete control); for Plant response rating, Galium: 125 g ai/ha; for Galium plant response rating: 500 g ai/ha, visual injury vs untreated controls after approx. 10 days
In short: as §2

[15] = 125 g ai/ha, visual injury, approx. 10 days

Row | Structure (SMILES) | Barnyardgrass plant response rating ([1]; 125 g ai/ha) | Plant response rating, Barnyardgrass ([1]; 500 g ai/ha) | Kochia plant response rating (kochia (Bassia scoparia) [2]; 125 g ai/ha) | Plant response rating, Kochia (kochia (Bassia scoparia) [2]; 500 g ai/ha) | Ragweed plant response rating ([3]; 125 g ai/ha) | Plant response rating, Ragweed ([3]; 500 g ai/ha) | Ryegrass, Italian plant response rating ([4]; 125 g ai/ha) | Plant response rating, Ryegrass, Italian ([4]; 500 g ai/ha) | Foxtail, Giant plant response rating ([5]; 125 g ai/ha) | Plant response rating, Foxtail, Giant ([5]; 500 g ai/ha) | Plant response rating, Pigweed ([6]; 500 g ai/ha) | Kochia plant response rating (kochia (Bassia scoparia) [7]) | Ragweed plant response rating [8] | Ryegrass, Italian plant response rating [9] | Foxtail, Giant plant response rating [10] | Pigweed plant response rating [11] | Wheat plant response rating [12] | Corn plant response rating (corn (Zea mays)) | Blackgrass plant response rating [13] | Galium plant response rating [14] | other results
1 | Cc1cc(C)c(N(S(=O)(=O)C(F)(F)F)S(=O)(=O)C(F)(F)F)cc1-c1cc(Cl)nn(C)c1=O [Compound 74] | 90 | 100 | 70 | 100 | 70 | 90 | 80 | 100 | 100 | 100 | 100 | 90 | 30 | 70 | 80 | 90 | 70 | 10 | 50 | 90 | Pigweed plant response rating ([6]; 125 g ai/ha): 60; Plant response rating, Kochia (kochia (Bassia scoparia) [7]; visual injury approx. 10 days): 30; Plant response rating, Ragweed ([8]; visual injury approx. 10 days): 0; Plant response rating, Ryegrass, Italian ([9]; visual injury approx. 10 days): 20; Plant response rating, Foxtail, Giant ([10]; visual injury approx. 10 days): 40; Plant response rating, Pigweed ([11]; visual injury approx. 10 days): 80; Plant response rating, Wheat ([12]; visual injury approx. 10 days): 60; Plant response rating, Corn (corn (Zea mays); visual injury approx. 10 days): 0; Plant response rating, Blackgrass ([13]; visual injury approx. 10 days): 40; Plant response rating, Galium ([14]; visual injury approx. 10 days): 50
2 | Cc1cc(-c2cc(N(S(=O)(=O)C(F)(F)F)S(=O)(=O)C(F)(F)F)c(C)cc2C)c(=O)n(C)n1 [Compound 75] | 90 | 100 | 80 | 100 | 20 | 80 | 80 | 100 | 100 | 100 | 100 | 80 | 50 | 60 | 90 | 80 | 70 | 0 | 70 | 90 | Pigweed plant response rating ([6]; 125 g ai/ha): 80; Plant response rating, Kochia (kochia (Bassia scoparia) [7]; visual injury approx. 10 days): 20; Plant response rating, Ragweed ([8]; visual injury approx. 10 days): 0; Plant response rating, Ryegrass, Italian ([9]; visual injury approx. 10 days): 20; Plant response rating, Foxtail, Giant ([10]; visual injury approx. 10 days): 30; Plant response rating, Pigweed ([11]; visual injury approx. 10 days): 40; Plant response rating, Wheat ([12]; visual injury approx. 10 days): 40; Plant response rating, Corn (corn (Zea mays); visual injury approx. 10 days): 0; Plant response rating, Blackgrass ([13]; visual injury approx. 10 days): 30; Plant response rating, Galium ([14]; visual injury approx. 10 days): 70
3 | Cc1cc(C)c(N(S(=O)(=O)C(F)(F)F)S(=O)(=O)C(F)(F)F)cc1-c1ccnn(C)c1=O [Compound 76] | 90 | 90 | 60 | 90 | 70 | 90 | 60 | 100 | 100 | 100 | 100 | 90 | 90 | 80 | 90 | 90 | 80 | 70 | 50 | 100 | Pigweed plant response rating ([6]; 125 g ai/ha): 50; Plant response rating, Kochia (kochia (Bassia scoparia) [7]; visual injury approx. 10 days): 50; Plant response rating, Ragweed ([8]; visual injury approx. 10 days): 60; Plant response rating, Ryegrass, Italian ([9]; visual injury approx. 10 days): 70; Plant response rating, Foxtail, Giant ([10]; visual injury approx. 10 days): 90; Plant response rating, Pigweed ([11]; visual injury approx. 10 days): 70; Plant response rating, Wheat ([12]; visual injury approx. 10 days): 40; Plant response rating, Corn (corn (Zea mays); visual injury approx. 10 days): 0; Plant response rating, Blackgrass ([13]; visual injury approx. 10 days): 50; Plant response rating, Galium ([14]; visual injury approx. 10 days): 90
4 | Cc1cc(C)c(N(S(=O)(=O)C(F)(F)F)S(=O)(=O)C(F)(F)F)cc1C1=NOC2(CCC2)C1 [Compound 196] | – | 90 | – | 80 | – | 0 | – | 70 | – | 100 | 100 | 20 | 30 | 30 | 0 | 50 | 0 | 0 | 0 | 80 | Plant response rating, Barnyardgrass [1, 15]: 0; Plant response rating, Kochia (kochia (Bassia scoparia) [2]; [15]): 70; Plant response rating, Ragweed [3, 15]: 0; Plant response rating, Ryegrass, Italian [4, 15]: 20; Plant response rating, Foxtail, Giant [5, 15]: 30; Plant response rating, Pigweed [6, 15]: 50; Plant response rating, Kochia (kochia (Bassia scoparia) [7]): 10; Plant response rating, Ragweed [8]: 0; Plant response rating, Ryegrass, Italian [9]: 0; Plant response rating, Foxtail, Giant [10]: 0; Plant response rating, Pigweed [11]: 30; Plant response rating, Wheat [12]: 0; Plant response rating, Corn (corn (Zea mays)): 0; Plant response rating, Blackgrass [13]: 0; Plant response rating, Galium [14]: 60
5 | Cc1cc(C)c(N(S(=O)(=O)C(F)(F)F)S(=O)(=O)C(F)(F)F)cc1C1=NOC2(CCCCC2)C1 [Compound 198] | – | 100 | – | 80 | – | 80 | – | 90 | – | 100 | 100 | 60 | 80 | 40 | 30 | 70 | 40 | 20 | 0 | 90 | Plant response rating, Barnyardgrass [1, 15]: 80; Plant response rating, Kochia (kochia (Bassia scoparia) [2]; [15]): 60; Plant response rating, Ragweed [3, 15]: 70; Plant response rating, Ryegrass, Italian [4, 15]: 60; Plant response rating, Foxtail, Giant [5, 15]: 100; Plant response rating, Pigweed [6, 15]: 70; Plant response rating, Kochia (kochia (Bassia scoparia) [7]): 20; Plant response rating, Ragweed [8]: 20; Plant response rating, Ryegrass, Italian [9]: 30; Plant response rating, Foxtail, Giant [10]: 0; Plant response rating, Pigweed [11]: 50; Plant response rating, Wheat [12]: 20; Plant response rating, Corn (corn (Zea mays)): 20; Plant response rating, Blackgrass [13]: 10; Plant response rating, Galium [14]: 70
